Test results from patent publication US4272437A, “Antibacterial agents, and 4-thio azetidinone intermediates” (priority 1979, dated 1981).
Converted amounts (≈) assume the structure as drawn. Read-outs that look alike come from different tables or passages of the source.

Experiments:
[1] = test system: Gram-negative and Gram-positive organisms; settings: literature; cited from earlier work
β-lactamases = settings: literature; cited from earlier work
Str. pneumoniae A-9585 = assay: MIC, tube dilution, Streptococcus pneumoniae A9585; format: cell-based; settings: Streptococcus pneumoniae, A9585, Str. pneumoniae A9585; overnight 37° C., Nutrient Broth; read-out: Minimum Inhibitory Concentration (M.I.C.)
Excerpt: (§1) Representative compounds of the present invention were subjected to in vitro antibiotic screening against a variety of microorganisms.

Str. pyogenes A-9604 = assay: MIC, tube dilution, Streptococcus pyogenes A9604; format: cell-based; settings: Streptococcus pyogenes, A9604, Str. pyogenes A9604; overnight 37° C., Nutrient Broth; read-out: Minimum Inhibitory Concentration (M.I.C.)
Excerpt: as §1

Staph. aureus A-9537 = assay: MIC, tube dilution, Staphylococcus aureus A9537; format: cell-based; settings: Staphylococcus aureus, A9537, Staph. aureus A9537; overnight 37° C., Nutrient Broth; read-out: Minimum Inhibitory Concentration (M.I.C.)
Excerpt: as §1

[2] = test system: Staph. aureus A-9537 and 50% serum; assay: MIC, tube dilution, Staph. aureus A9537 + 50% serum; format: cell-based, Staphylococcus aureus; settings: Staphylococcus aureus, overnight 37° C., read-out: Minimum Inhibitory Concentration (M.I.C.)
Excerpt: as §1

[3] = test system: Staph. aureus (Pen-Res) A-9606; assay: MIC, tube dilution, Staphylococcus aureus A9606 (Pen-Res); format: cell-based; settings: Staphylococcus aureus, Staph. aureus A9606 (Pen-Res); overnight 37° C.; read-out: Minimum Inhibitory Concentration (M.I.C.)
Excerpt: as §1

[4] = test system: Staph. aureus (Meth-Res) A-15097; assay: MIC, tube dilution, Staphylococcus aureus A15097 (Meth-Res); format: cell-based; settings: Staphylococcus aureus, Staph. aureus A15097 (Meth-Res); overnight 37° C.; read-out: Minimum Inhibitory Concentration (M.I.C.)
Excerpt: as §1

Str. faecalis A-20688 = assay: MIC, tube dilution, Streptococcus faecalis A20688; format: cell-based; settings: Enterococcus faecalis, A20688, Str. faecalis A20688; overnight 37° C.; read-out: Minimum Inhibitory Concentration (M.I.C.)
Excerpt: as §1

E. coli A-15119 = assay: MIC, tube dilution, Escherichia coli A15119; format: cell-based; settings: Escherichia coli, A15119, E. coli A15119; overnight 37° C.; read-out: Minimum Inhibitory Concentration (M.I.C.)
Excerpt: as §1

E. coli A-20341-1 = assay: MIC, tube dilution, Escherichia coli A20341-1; format: cell-based; settings: Escherichia coli, A203411, E. coli A20341-1; overnight 37° C.; read-out: Minimum Inhibitory Concentration (M.I.C.)
Excerpt: as §1

K. pneumoniae A-15130 = assay: MIC, tube dilution, Klebsiella pneumoniae A15130; format: cell-based; settings: Klebsiella pneumoniae, A15130, K. pneumoniae A15130; overnight 37° C.; read-out: Minimum Inhibitory Concentration (M.I.C.)
Excerpt: as §1

[5] = test system: Klebsiella species A20468; assay: MIC, tube dilution, Klebsiella species A20468; format: cell-based; settings: Klebsiella species (K. pneumoniae) A20468; overnight 37° C.; read-out: Minimum Inhibitory Concentration (M.I.C.)
Excerpt: as §1

Pr. mirabilis A-9900 = assay: MIC, tube dilution, Proteus mirabilis A9900; format: cell-based; settings: Proteus mirabilis, A9900, Proteus mirabilis A9900; overnight 37° C.; read-out: Minimum Inhibitory Concentration (M.I.C.)
Excerpt: as §1

Pr. morganii A-15153 = assay: MIC, tube dilution, Proteus morganii A15153; format: cell-based; settings: Morganella morganii, A15153, Proteus morganii A15153; overnight 37° C.; read-out: Minimum Inhibitory Concentration (M.I.C.)
Excerpt: as §1

Ser. marcescens A-20019 = assay: MIC, tube dilution, Serratia marcescens A20019; format: cell-based; settings: Serratia marcescens, A20019, Serratia marcescens A20019; overnight 37° C.; read-out: Minimum Inhibitory Concentration (M.I.C.)
Excerpt: as §1

Ent. cloacae A-9659 = assay: MIC, tube dilution, Enterobacter cloacae A9659; format: cell-based; settings: Enterobacter cloacae, A9659, Enterobacter cloacae A9659; overnight 37° C.; read-out: Minimum Inhibitory Concentration (M.I.C.)
Excerpt: as §1

Ent. cloacae A-9656 = assay: MIC, tube dilution, Enterobacter cloacae A9656; format: cell-based; settings: Enterobacter cloacae, A9656, Enterobacter cloacae A9656; overnight 37° C.; read-out: Minimum Inhibitory Concentration (M.I.C.)
Excerpt: as §1

Ps. aeruginosa A-9843A = assay: MIC, tube dilution, Pseudomonas aeruginosa A9843A; format: cell-based; settings: Pseudomonas aeruginosa, A9843A, read-out: Minimum Inhibitory Concentration (M.I.C.), Pseudomonas aeruginosa A9843A; overnight 37° C.
Excerpt: as §1

Ps. aeruginosa A-21213 = assay: MIC, tube dilution, Pseudomonas aeruginosa A21213; format: cell-based; settings: Pseudomonas aeruginosa, A21213, Pseudomonas aeruginosa A21213; overnight 37° C.; read-out: Minimum Inhibitory Concentration (M.I.C.)
Excerpt: as §1

Proteus rettgeri A21203 = assay: MIC, tube dilution, Proteus rettgeri A21203; format: cell-based; settings: Providencia rettgeri, A21203, Proteus rettgeri A21203; overnight 37° C.; read-out: Minimum Inhibitory Concentration (M.I.C.)
Excerpt: as §1

[6] = test system: Hemophilus influenzae A9833; assay: MIC, tube dilution, Hemophilus influenzae A9833; format: cell-based; settings: Haemophilus influenzae; Hemophilus influenzae A9833; overnight 37° C.; read-out: Minimum Inhibitory Concentration (M.I.C.)
Excerpt: as §1

Proteus vulgaris A21559 = assay: MIC, tube dilution, Proteus vulgaris A21559; format: cell-based; settings: Proteus vulgaris, A21559, Proteus vulgaris A21559; overnight 37° C.; read-out: Minimum Inhibitory Concentration (M.I.C.)
Excerpt: as §1

E. coli A15119 = assay: In vivo protection of mice, lethal infection with E. coli A15119; settings: Escherichia coli, 2 treatments, read-out: PD50
Procedure: (§2) Representative compounds of the present invention were also tested in vivo in mice and their PD50 (dose of compound in mg/kg required to protect 50% of the treated mice against an otherwise lethal infection of a micro-organism) values determined with respect to the test organisms shown below.

S. aureus A9537 = assay: In vivo protection of mice, lethal infection with S. aureus A9537; settings: Staphylococcus aureus, 2 treatments, read-out: PD50
Procedure: as §2

[7] = Mouse blood levels after intramuscular administration; format: in vivo; settings: average of 6 mice, read-out: Mouse blood level
Procedure: Mouse blood levels after intramuscular administration of representative compounds of the present invention were determined and are reported in the table below.

| Compound | β-lactamase inhibition (β-lactamases) | MIC (Str. pneumoniae A-9585) [µg/mL] | MIC (Str. pyogenes A-9604) [µg/mL] | MIC (Staph. aureus A-9537) [µg/mL] | MIC [2] [µg/mL] | MIC [3] [µg/mL] | MIC [4] [µg/mL] | MIC (Str. faecalis A-20688) [µg/mL] | MIC (E. coli A-15119) [µg/mL] | MIC (E. coli A-20341-1) [µg/mL] | MIC (K. pneumoniae A-15130) [µg/mL] | MIC [5] [µg/mL] | MIC (Pr. mirabilis A-9900) [µg/mL] | MIC (Pr. morganii A-15153) [µg/mL] | MIC (Ser. marcescens A-20019) [µg/mL] | MIC (Ent. cloacae A-9659) [µg/mL] | MIC (Ent. cloacae A-9656) [µg/mL] | MIC (Ps. aeruginosa A-9843A) [µg/mL] | MIC (Ps. aeruginosa A-21213) [µg/mL] | MIC (Proteus rettgeri A21203) [µg/mL] | other results |
| --- | --- | --- | --- | --- | --- | --- | --- | --- | --- | --- | --- | --- | --- | --- | --- | --- | --- | --- | --- | --- | --- |
| CC(=O)NC=C[S+]([O-])C1=C(C(=O)O)N2C(=O)C(C(C)OS(=O)(=O)O)C2C1 (centres unmarked) | β-lactamase inhibitor |  |  |  |  |  |  |  |  |  |  |  |  |  |  |  |  |  |  |  | antibacterial activity [1]: some antibacterial activity |
| COC(=O)C1=C(C)OC2C(NC(c3ccccc3)(c3ccccc3)c3ccccc3)C(=O)N12 (centres unmarked) | weak inhibitor of β-lactamases |  |  |  |  |  |  |  |  |  |  |  |  |  |  |  |  |  |  |  |  |
| CC(=O)NCCC1=C(C(=O)O)N2C(=O)CC2S1 (centres unmarked) [Example 25, Sodium 2-(2'-Acetamido-1'-ethyl)penem-3-carboxylate] |  | 0.25 | 0.25 | 0.5 | 8 | 1 | 125 | 63 | 4 | 63 | 16 | > 125 | 4 | 4 | 4 | 4 | 8 | 16 | > 125 | 8 | MIC [6]: > 125 µg/mL |
| O=C(O)C1=C(CCCNO)SC2CC(=O)N12 (centres unmarked) [Example 26] |  | 0.016 (≈ 0.0655 µM) | 0.06 (≈ 0.246 µM) | 0.13 (≈ 0.532 µM) | 4 | 8 (≈ 32.8 µM) | 125 (≈ 512 µM) | 63 (≈ 258 µM) | 0.5 (≈ 2.05 µM) | 63 (≈ 258 µM) | 8 (≈ 32.8 µM) | > 125 | 1 (≈ 4.09 µM) | 1 (≈ 4.09 µM) | 1 (≈ 4.09 µM) | 2 (≈ 8.19 µM) | 1 (≈ 4.09 µM) | 1 (≈ 4.09 µM) | 125 (≈ 512 µM) | 2 (≈ 8.19 µM) | MIC [6]: 125 µg/mL (≈ 512 µM) |
| N[C@H]1C[C@H](C2=C(C(=O)O)N3C(=O)C[C@H]3S2)C1 [Example 75, 2-(trans 3-Aminocyclobutyl)-penem-3-carboxylic Acid] |  | 0.002 (≈ 0.00832 µM) | 0.016 (≈ 0.0666 µM) | 0.06 (≈ 0.25 µM) | 0.5 | 63 (≈ 262 µM) | 4 (≈ 16.6 µM) | 4 (≈ 16.6 µM) | 1 (≈ 4.16 µM) | 8 (≈ 33.3 µM) | 4 (≈ 16.6 µM) | > 125 | 1 (≈ 4.16 µM) | 4 (≈ 16.6 µM) | 2 (≈ 8.32 µM) | 4 (≈ 16.6 µM) | 4 (≈ 16.6 µM) | 63 (≈ 262 µM) | 125 (≈ 520 µM) | 1 (≈ 4.16 µM) | MIC (Proteus vulgaris A21559): 2 µg/mL (≈ 8.32 µM); ED50 (E. coli A15119; IM, 6.5 × 10^5 organisms): 25 mg/kg; ED50 (E. coli A15119; PO, 6.5 × 10^5 organisms): > 50 mg/kg; ED50 (S. aureus A9537; A9537, im, IM, 7.3 × 10^5 organisms): 0.4 mg/kg |
| N[C@H]1C[C@@H](C2=C(C(=O)O)N3C(=O)C[C@H]3S2)C1 [Example 78, 2-(cis-3'-Aminocyclobutyl)penem-3-carboxylic Acid] |  | 0.03 (≈ 0.125 µM) | 0.06 (≈ 0.25 µM) | 0.13 (≈ 0.541 µM) | 2 | 16 (≈ 66.6 µM) | 8 (≈ 33.3 µM) | 16 (≈ 66.6 µM) | 2 (≈ 8.32 µM) | 16 (≈ 66.6 µM) | 4 (≈ 16.6 µM) | > 125 | 4 (≈ 16.6 µM) | 8 (≈ 33.3 µM) | 4 (≈ 16.6 µM) | 4 (≈ 16.6 µM) | 4 (≈ 16.6 µM) | 16 (≈ 66.6 µM) | > 125 | 4 (≈ 16.6 µM) | MIC (Proteus vulgaris A21559): 4 µg/mL (≈ 16.6 µM); ED50 (E. coli A15119; IM, 7 × 10^5 organisms): 28 mg/kg; ED50 (S. aureus A9537; A9537, im, IM, 1 × 10^6 organisms): 0.63 mg/kg; ED50 (S. aureus A9537; A9537, po, PO, 1 × 10^6 organisms): 2.5 mg/kg; concentration at 10 min ([7]; 10 minutes after IM 40 mg/kg): 29700 ng/mL; concentration at 20 min ([7]; 20 minutes after IM 40 mg/kg): 19300 ng/mL; concentration at 0.5 h ([7]; 30 minutes after IM 40 mg/kg): 12600 ng/mL; concentration at 0.75 h ([7]; 45 minutes after IM 40 mg/kg): 6600 ng/mL; concentration at 1 h ([7]; 60 minutes after IM 40 mg/kg): < 5000 ng/mL; concentration at 1.5 h ([7]; 90 minutes after IM 40 mg/kg): < 5000 ng/mL; concentration at 2 h ([7]; 120 minutes after IM 40 mg/kg): < 5000 ng/mL |
| O=C(O)C1=CSC2CC(=O)N12 (centres unmarked) [drawing 10] | no β-lactamase inhibitory activity |  |  |  |  |  |  |  |  |  |  |  |  |  |  |  |  |  |  |  |  |
| C[C@@H](O)[C@H]1C(=O)N2C(C(=O)O)=C(SCCN)C[C@H]12 [thienamycin] |  |  |  |  |  |  |  |  |  |  |  |  |  |  |  |  |  |  |  |  | antibacterial activity [1]: highly potent broad-spectrum antibiotic |
